Test: Aqueous solubility of organic solvent, EPA830.7840 flask shaking method
Type: physicochemical
Conditions: 1 atm and 23°C
Description: The upper limit of the aqueous solubility of the organic solvent (B) is not particularly limited. The organic solvent (B) may be, for example, a water-miscible organic solvent that can be mixed with water in an arbitrary amount. […] The aqueous solubility of the organic solvent (B) represents the maximum amount (g) of the organic solvent dissolved in 100 g of water.

Row | SMILES | Aqueous solubility | amount of the organic solvent dissolved in 100 g of water
1 | OCc1ccccc1 [Benzyl alcohol] | 4 g/100 g of water | 4 g
2 | CCCCOCCOCCO [Diethylene glycol monobutyl ether] | miscible | miscible
3 | CCCOC(C)COC(C)CO (stereo not drawn) [Dipropylene glycol monopropyl ether] | 18 g/100 g of water | 18 g
4 | COCC(C)O (stereo not drawn) [Propylene glycol monomethyl ether] | miscible | 
5 | OCCOc1ccccc1 [ethylene glycol monophenyl ether] |  | 2.3 g

Now from value to compound:

Row | Aqueous solubility | amount of the organic solvent dissolved in 100 g of water | SMILES
6 | miscible |  | COC(C)COC(C)CO (stereo not drawn) [Dipropylene glycol monomethyl ether]
7 | 3 g/100 g of water | 3 g | CCCCOC(C)COC(C)COC(C)CO (stereo not drawn) [Tripropylene glycol monobutyl ether]
8 |  | miscible | COC(C)COC(C)COC(C)CO (stereo not drawn) [tripropylene glycol monomethyl ether]

Source: patent EP4810579A1, “AQUEOUS COATING COMPOSITION” (Chugoku Marine Paints, Ltd., priority 2023, dated 2025)
